Source: patent EP0478235A2, “A directed biosynthesis for an immunomycin derivative” (MERCK & CO. INC., priority 1990, dated 1992)

Tested on: T lymphocytes
Assay: T-cell proliferation assay (tritiated thymidine incorporation, ionomycin + PMA stimulation)
Format: cell-based, C57B1/6 mice
Conditions: T-lymphocyte
Description: Purified compound, or fractions, prepared by HPLC, was dissolved in absolute ethanol at a final concentration of 100 µg/ml.
Spleens from C57B1/6 mice were taken under sterile conditions and gently dissociated in ice-cold RPMI 1640 culture medium (GIBCO, Grand Island, N. Y.) supplemented with 10% heat-inactivated fetal calf serum (GIBCO). Cells were pelleted by centrifugation at 1500 rpm for 8 minutes. Contaminating red cells were removed by treating the pellet with ammonium chloride lysing buffer (GIBCO) for 2 minutes at 4°C. Cold medium was added and cells were again centrifuged at 1500 rpm for 8 minutes. T lymphocytes were then isolated by separation of the cell suspension on nylon wool columns as follows: Nylon wool columns were prepared by packing approximately 4 grams of washed and dried nylon wool into 20 ml plastic syringes. The columns were sterilized by autoclaving at 250°F for 30 minutes. Nylon wool columns were wetted with warm (37°C) culture medium and rinsed with the same medium. Washed spleen cells resuspended in warm medium were slowly applied to the nylon wool. The columns were then incubated in an upright position at 37°C for 1 hour. Non-adherent T lymphocytes were eluted from the columns with warm culture medium and the cell suspensions were spun as above.
Purified T lymphocytes were resuspended at […] in complete culture medium composed of RPMI 1640 medium with 10% heat-inactivated fetal calf serum, […], 1mM sodium pyruvate, 2 x 10⁻⁵M 2-mercaptoethanol and 50 µg/ml gentamycin. Ionomycin was added at 250 ng/ml and PMA at 10 ng/ml. The cell suspension was immediately distributed into 96 well flat-bottom microculture plates (Costar) at 200 µl/well. The control, being the medium without test drug, and various below-indicated dilutions of the sample (above-described purified prolylimmunomycin) to be tested were then added in triplicate wells at 20 µl/well. FK-520 was used as a standard. The culture plates were then incubated at 37°C in a humidified atmosphere of 5% CO₂-95% air for 44 hours. The proliferation of T lymphocytes was assessed by measurement of tritiated thymidine incorporation. After 44 hours of culturing, the cells were pulse-labelled with 2 µCi/well of tritiated thymidine (NEN, Cambridge, MA). After another 4 hours of incubation, cultures were harvested on glass fiber filters using a multiple sample harvester. Radioactivity of filter discs corresponding to individual wells as measured by standard liquid scintillation counting methods (Betacounter). Mean counts per minute of replicate wells were calculated and the results expressed as percent inhibition of tritiated thymidine uptake (profileration) as follows: Inhibition = 100 -(Mean cpm sample tested X 100.)/(Mean cpm control medium) [formula]

SMILES	inhibition at 0.004 µg/mL (Mus musculus, 4 ng/ml, standard) [%]	inhibition at 0.0019 µg/mL (1.9 ng/ml, mouse T cell cultures pulsed with 3H-thymidine for 4 hours prior to harvesting at 48 hours) [%]	inhibition at 0.0039 µg/mL (3.9 ng/ml, mouse T cell cultures pulsed with 3H-thymidine for 4 hours prior to harvesting at 48 hours) [%]	inhibition at 0.0078 µg/mL (7.8 ng/ml, mouse T cell cultures pulsed with 3H-thymidine for 4 hours prior to harvesting at 48 hours) [%]	inhibition at 0.0155 µg/mL (15.5 ng/ml, mouse T cell cultures pulsed with 3H-thymidine for 4 hours prior to harvesting at 48 hours) [%]	inhibition at 0.031 µg/mL (31.0 ng/ml, mouse T cell cultures pulsed with 3H-thymidine for 4 hours prior to harvesting at 48 hours) [%]	inhibition at 0.062 µg/mL (62.0 ng/ml, mouse T cell cultures pulsed with 3H-thymidine for 4 hours prior to harvesting at 48 hours) [%]
CC[C@@H]1/C=C(\C)C[C@H](C)C[C@H](OC)[C@H]2O[C@@](O)(C(=O)C(=O)N3CCCC[C@H]3C(=O)O[C@H](/C(C)=C/[C@@H]3CC[C@@H](O)[C@H](OC)C3)[C@H](C)[C@@H](O)CC1=O)[C@H](C)C[C@@H]2OC [FK-520, immunomycin]	99						
CC[C@@H]1/C=C(\C)C[C@H](C)C[C@H](OC)[C@H]2O[C@@](O)(C(=O)C(=O)N3CCC[C@H]3C(=O)O[C@H](/C(C)=C/[C@@H]3CC[C@@H](O)[C@H](OC)C3)[C@H](C)[C@@H](O)CC1=O)[C@H](C)C[C@@H]2OC [Prolyl-Immunomycin, prolyl-immunomycin]		8.2	47	84.8	94.3	96.3	97.8
